Measured values: patent US11072638B2, “Immunostimulating peptides” (AIMVION A/S, priority 2016, dated 2021)
Bridge positions count the residues as written; N and C are the ends. Ends that are not written are not given here. I, II: the chains in the order shown.

Experiments:
THP-1 cells = experiment: IL-6 levels in LPS-stimulated THP-1 cells, 6 h (Example 1); format: cell-based, human; details: for % IL-6 secretion level compared to LPS-stimulated control: THP-1, 1 μg/μl LPS for 6 h, + above, − below LPS-only control (100%); for Release of cytokines, including pro-inflammatory cytokines such as IL-6, TNF-alpha, and IL-8: pre-treatment of cells with peptide
Method: The modulatory function of peptides SG #4, SG #8, SG #13, and SG #14 on the expression levels of IL-6 in the human acute monocytic leukaemia cell line THP-1 was examined. THP-1 cells were maintained in RPMI 1640 supplemented with 10% FBS, 100 U/ml penicillin, 100 μg/ml streptomycin and 2 mM L-glutamine at 37° C. in a 5% CO2 incubator. THP-1 cells are known to induce IL-6, TNFα, IL-10 and IL-8 mRNA and protein in response to lipopolysaccharide (LPS) treatment. THP-1 cells were left untreated or incubated with 0 uM, 7.5 μM, 15 μM, 30 μM, 60 μM or 100 μm of each of the peptides, and stimulated with […] LPS for 6 h, based on previous analyses to find the optimal dose and incubation times.
(−) inhibition indicates percentage (%) of inhibition as compared to only LPS treated samples (arbitrarily set at 100%).

female BALB/c mice = experiment: Anti-ovalbumin IgG1 ELISA after in vivo immunization of mice (Example 3); details: s.c. day 1 and day 14, 5 μg SG#4 + 50/25 μg ovalbumin per animal, serum at day 21
Excerpt: Chicken ovalbumin has been used to trigger T cell activation in immunology studies. Ovalbumin immunized mice produce anti-OVA antibodies predominantly of the IgG1 and IgE isotypes that mediate tissue-specific effector functions in multiple mouse models. Thus, it is often desirable to measure anti-OVA antibody levels in the plasma or serum to determine the effectiveness of the immunization/induction of a TH2-mediated immune response. Here, we tested the effectiveness of the SG #4 peptide in inducing of a TH2-mediated immune response in female BALB/c mice. The study agents contained Ovalbumin alone, peptide construct SG #4 alone or ovalbumin in combination with SG #4. […]
An ELISA assay was carried out according to the manufacturer's protocol, as follows. […] This Goat Anti-mouse IgG1 was labeled with HRP, allowing quantification of the […]. Addition of the HRP Substrate 3,3′,5,5′-tetramethylbenzidine (TMB), following by Stop Solution produces a yellow colored product which was measured spectrophotometrically. […] 1 mL of the top standard concentration (250 pg/mL anti-ovalbumin IgG1 quantification) was prepared in 1× Assay Diluent A (1×AD) from the anti-ovalbumin IgG1 stock solution. […] Using computer reduction software, absorbance (linear y-axis) for standard versus concentration (linear x-axis) is plotted and data is fitted with a quadratic equation. […]

Sequence | % IL-6 secretion level compared to LPS-stimulated control (THP-1 cells; 7.5 μM peptide) | % IL-6 secretion level compared to LPS-stimulated control (THP-1 cells; 15 μM peptide) | % IL-6 secretion level compared to LPS-stimulated control (THP-1 cells; 30 μM peptide) | % IL-6 secretion level compared to LPS-stimulated control (THP-1 cells; 60 μM peptide) | % IL-6 secretion level compared to LPS-stimulated control (THP-1 cells; 100 μM peptide) | Release of cytokines, including pro-inflammatory cytokines such as IL-6, TNF-alpha, and IL-8 (THP-1 cells) | Induction of immune response (anti-ovalbumin IgG1) versus ovalbumin alone (female BALB/c mice)
LQNRRGLGLSILLNEE (Mutated sequence) [SG#13] | −5.765% | +6.907% | −5.286% | +8.616% | +36.98% | promotes the release of cytokines | 
LQNRRGLGLSILLNC (disulfide I:15-II:15 (inferred)) [SG#4] | +12.99% | +20.76% | +38.19% | +36.39% | +13.27% | promotes the release of cytokines | significantly higher induction of immune response
LQNKRGLGLSILLNEECGPGPGP (disulfide I:17-II:17 (inferred)) [SG#8] | +1.472% | +14.54% | +6.835% | +7.655% | +20.86% | promotes the release of cytokines | 
LQNRRGLGLSILLNEELQNRRGL (Mutated sequence) [SG#14] | −2.981% | −0.4476% | +0.7403% | +28.52% | +15.21% | promotes the release of cytokines | 
